# Measurements from patent publication US7981886B2, “Antibiotics derivatives” (Actelion Pharmaceutical Ltd., priority 2005, dated 2011).
# Key:
# Type in all cases: cell-based
# E. faecalis 29212 = test: MIC by microdilution (NCCLS), E. faecalis 29212; details: Enterococcus faecalis, cation-adjusted Mueller-Hinton Broth, pH 7.2-7.3
# Experimental: (§1) These assays have been performed following the description given in “Methods for dilution Antimicrobial Susceptibility Tests for Bacteria that Grow Aerobically, 4th ed.; Approved standard: NCCLS Document M7-A4; National Committee for Clinical Laboratory Standards Villanova, Pa., USA, 1997”. Minimal inhibitory concentrations (MICs; mg/l) were determined in cation-adjusted Mueller-Hinton Broth (BBL) by a microdilution method following NCCLS guidelines (National Committee for Clinical Laboratory Standards. Methods for Dilution Antimicrobial Susceptibility). The pH of the test medium was 7.2-7.3.
# (§2) All Examples were tested against several Gram positive and Gram negative bacteria.
# S. aureus A798 = test: MIC by microdilution (NCCLS), S. aureus A798; details: Staphylococcus aureus, cation-adjusted Mueller-Hinton Broth, pH 7.2-7.3
# Experimental: as §1, §2
# S. aureus 29213 = test: MIC by microdilution (NCCLS), S. aureus 29213; details: Staphylococcus aureus, cation-adjusted Mueller-Hinton Broth, pH 7.2-7.3
# Experimental: as §1, §2
# S. pneumoniae 49619 = test: MIC by microdilution (NCCLS), S. pneumoniae 49619; details: Streptococcus pneumoniae, cation-adjusted Mueller-Hinton Broth, pH 7.2-7.3
# Experimental: as §1, §2
# M. catarrhalis A894 = test: MIC by microdilution (NCCLS), M. catarrhalis A894; details: Moraxella catarrhalis, cation-adjusted Mueller-Hinton Broth, pH 7.2-7.3
# Experimental: as §1, §2
# H influenzae A921 = test: MIC by microdilution (NCCLS), H influenzae A921; details: cation-adjusted Mueller-Hinton Broth, pH 7.2-7.3
# Experimental: as §1, §2
# E. faecium A949 = test: MIC by microdilution (NCCLS), E. faecium A949; details: Enterococcus faecium, cation-adjusted Mueller-Hinton Broth, pH 7.2-7.3
# Experimental: as §1, §2
# E. coli 25922 = test: MIC by microdilution (NCCLS), E. coli 25922; details: Escherichia coli, cation-adjusted Mueller-Hinton Broth, pH 7.2-7.3
# Experimental: as §1, §2
# P. aeruginosa 27853 = test: MIC by microdilution (NCCLS), P. aeruginosa 27853; details: Pseudomonas aeruginosa, cation-adjusted Mueller-Hinton Broth, pH 7.2-7.3
# Experimental: as §1, §2
SMILES,MIC (E. faecalis 29212),MIC (S. aureus A798),MIC (S. aureus 29213),MIC (S. pneumoniae 49619),MIC (M. catarrhalis A894),MIC (H influenzae A921),MIC (E. faecium A949),MIC (E. coli 25922),MIC (P. aeruginosa 27853)
"COc1cccc2sc(C(=O)[C@@H]3CC[C@@H](NCc4ccc5c(n4)NC(=O)CS5)CO3)nc12 [Example 29, (3R,6S)-6-{[6-(4-methoxy-benzothiazole-2-carbonyl)-tetrahydro-pyran-3-ylamino]-methyl}-4H-pyrido[3,2-b][1,4]thiazin-3-one]",2 µg/mL,2 µg/mL,1 µg/mL,4 µg/mL,0.125 µg/mL,2 µg/mL,1 µg/mL,16 µg/mL,> 16 µg/mL
"O=C1CSc2ccc(CNC3CCC(C(=O)c4nc5ccccc5s4)CC3)cc2N1 (stereo not drawn) [Example 1, 6-{[4-(benzothiazole-2-carbonyl)-cyclohexylamino]-methyl}-4H-benzo[1,4]thiazin-3-one]",0.5 µg/mL,0.125 µg/mL,0.25 µg/mL,2 µg/mL,≤ 0.031 µg/mL,0.063 µg/mL,1 µg/mL,0.5 µg/mL,16 µg/mL
"COc1cccc2sc(O[C@H]3CC[C@H](NCc4ccc5c(c4)NC(=O)CS5)CC3)nc12 [Example 28, 6-{[trans-4-(4-methoxy-benzothiazol-2-yloxy)-cyclohexylamino]-methyl}-4H-benzo[1,4]thiazin-3-one]",16 µg/mL,1 µg/mL,8 µg/mL,16 µg/mL,0.125 µg/mL,16 µg/mL,16 µg/mL,16 µg/mL,> 16 µg/mL
"COc1cccc2sc(C(=O)C3CCN(CC(=O)c4ccc5c(c4)NC(=O)CO5)CC3)nc12 [Example 34, 6-{2-[4-(4-methoxy-benzothiazole-2-carbonyl)-piperidin-1-yl]-acetyl}-4H-benzo[1,4]oxazin-3-one]",16 µg/mL,2 µg/mL,1 µg/mL,16 µg/mL,0.25 µg/mL,2 µg/mL,4 µg/mL,16 µg/mL,> 16 µg/mL
"Cc1cccc2sc(C(=O)[C@H]3CC[C@H](NCc4ccc5c(c4)NC(=O)CS5)CC3)nc12 [Example 4, 6-{[trans-4-(4-methyl-benzothiazole-2-carbonyl)-cyclohexylamino]-methyl}-4H-benzo[1,4]thiazin-3-one]",0.5 µg/mL,0.063 µg/mL,0.125 µg/mL,1 µg/mL,≤ 0.031 µg/mL,0.25 µg/mL,0.25 µg/mL,1 µg/mL,4 µg/mL
"COc1cccc2sc(C(=O)[C@H]3CC[C@H](NCc4ccc5c(n4)NC(=O)CS5)CC3)nc12 [Example 23, 6-{[trans-4-(4-methoxy-benzothiazole-2-carbonyl)-cyclohexylamino]-methyl}-4H-pyrido[3,2-b][1,4]thiazin-3-one]",8 µg/mL,0.5 µg/mL,1 µg/mL,4 µg/mL,0.25 µg/mL,8 µg/mL,8 µg/mL,16 µg/mL,> 16 µg/mL
